These results are taken from patent publication US12370143B2, “Compound or salt thereof and lipid particles” (FUJIFILM Corporation, priority 2018, dated 2025).

Structures are written as SMILES. pIC50: −log10 of the molar value. Where two headings read alike, the source gives them in different places. Where only a bound is given, the exact number is not on record here.

The nature of series [1]: Particle size of nucleic acid lipid particles (Luc2-siRNA). The series is classed as physicochemical. To be noted: compound/DSPC/cholesterol/DMG-PEG2000 50/10/38.5/1.5. The procedure: By using the dispersion liquid of lipid particles as it was, the particle size of the lipid particles was measured using a zeta potential/particle size measurement system ELS-Z2 (Otsuka Electronics Co., Ltd.).
(§1) The compounds described in Table 2, L-α-distearoylphosphatidylcholine (trade name: COATSOME® MC-8080; NOF corporation), cholesterol (trade name: Choesterol HP; NIPPON FINE CHEMICAL CO., LTD.), and 1,2-dimyristoyl-rac-glycero-3-(methylpolyoxyethylene 2000) (hereinafter, called DMG-PEG2000) (trade name: SUNBRIGHT® GM-020; NOF corporation) were dissolved in ethanol at a molar ratio of 50/10/38.5/1.5 such that the total lipid concentration became 20 mmol/L, thereby obtaining an oil phase.
(§2) An aqueous nucleic acid solution obtained by dissolving 5 mg of Luc2-siRNA having the sequence described in Biomacromolecules (2013) 14, p. 3905 in 1 mL of sterile water was diluted with 10 mmol/L acetate buffer having a pH 4 such that the nucleic acid concentration became 19.7 μmol/L, thereby obtaining a water phase. Then, the water phase and the oil phase were mixed together by a micromixer (see JP5288254B) using a syringe pump such that the volume ratio of water phase:oil phase became 3:1 (final ratio of siRNA/lipid=339 (mol/mol)), and the mixed solution was diluted 2× with PBS, thereby obtaining a dispersion liquid of nucleic acid lipid particles. The dispersion liquid was dialyzed (Slide-A-Lyzer G2, MWCO: 10 kD, Thermo Fisher Scientific) using a phosphate buffered saline such that ethanol was removed, thereby obtaining nucleic acid lipid particles.
The particle size of the nucleic acid lipid particles was measured by the same method as that in <Preparation of lipid particles>.

Series [2] can be described thus: Encapsulation rate of siRNA in nucleic acid lipid particles (Luc2-siRNA). The series is classed as physicochemical. Particulars: compound/DSPC/cholesterol/DMG-PEG2000 50/10/38.5/1.5. The method, then:
as §1, §2
A 3 mol/L aqueous sodium acetate solution (30 μL) and 9 μL of glycogen were added to 60 μL of the lipid particles retaining nucleic acids, and then 1.5 mL of ethanol was added thereto such that only the nucleic acids were precipitated while the lipid was dissolved. Then, the supernatant was removed by centrifugation. After the precipitates were air-dried for 15 minutes or longer, water was added thereto such that the precipitates were redissolved, and the concentration thereof was measured using Nanodrop NF1000 (Thermo Fisher Scientific), thereby quantifying the total nucleic acid concentration.
The nucleic acid concentration was quantified using a Quant-iT RiboGreen RNA Assay Kit (Thermo Fisher Scientific) according to the protocol. First, a 20×TE buffer included in the above kit was diluted with water, thereby obtaining a 1×TE buffer. TE represents Tris/EDTA (ethylenediaminetetraacetic acid). In order to quantify only the nucleic acid in the outer water phase, the dispersion liquid of lipid particles retaining nucleic acids was diluted 10,000× with the 1×TE buffer.
The 10,000× diluted dispersion liquid of lipid particles (100 μL) was put in a 96-well plate, then 100 μL of a RiboGreen reagent (reagent included in the Quanti-iT Ribogreen RNA Assay Kit described above) diluted 2000× with the 1×TE buffer was added to a sample, and fluorescence (excitation wavelength: 485 nm, fluorescence wavelength: 535 nm) was measured using a plate reader Infinit EF200 (TECAN), thereby quantifying the nucleic acid concentration in the outer water phase.
By using the total nucleic acid concentration obtained through the above steps and the quantified nucleic acid concentration in the outer water phase, the nucleic acid encapsulation rate of the nucleic acid lipid particles was calculated according to the following Equation. Nucleic acid encapsulation rate (%)=(total nucleic acid concentration−nucleic acid concentration in outer water phase)/total nucleic acid concentration×100 The results are shown in Table 2.

Series [3] relates to DMS273 cells constantly expressing Luc. The series can be described thus: Target reporter protein (Luc) knockdown in cell, reporter protein assay. Type of series: cell-based. To be noted: Homo sapiens, DMS-273. The procedure: The nucleic acid lipid particles prepared by the same method as that in <Preparation of nucleic acid lipid particles> by using the compounds described in Table 3 were evaluated by reporter assay by the following method.
By using pGL4.50 Luc2 (E1310 Promega), DMS273 cells (human small cell lung cancer) (European Collection of Authenticated Cell Cultures) constantly expressing Luc were prepared. RPMI (Gibco) (10% FBS (Gibco), 1% Penicillin-Streptomycin (Gibco), and 200 μg/mL Hygromycin (Wako)) was used as a culture medium. DMS273 cells (2.0×10^3) constantly expressing luciferase (Luc) were seeded in a 96-well plate and cultured in a 5% CO2 incubator for 24 hours, and then the medium was replaced. Then, 10 μL of each of the dispersion liquids of lipid particles diluted with PBS (Gibco) to yield a concentration of 1 to 1,000 nmol/L was added to the 96-well plate, and the final concentration was adjusted to 0.1 to 100 nmol/L (total amount of liquid: 110 μl). Thereafter, the cells were cultured in a 5% CO2 incubator for 24 hours, the medium was then replaced, and the cells were further cultured for 24 hours.
After the viable cell count was determined, the expression amount of Luc was quantified using a Steady Glo assay kit (Promega), and the knockdown efficiency was calculated according to the following equation. Then, the IC50 concentration at which the expression amount of Luc was knocked down to 50% was calculated.

Usually pIC50 stands for −log10 of the IC50, conventionally taken in molar units.

As to `CCCCC/C=C\C/C=C\CCCCCCCCN(CCCCCCCC/C=C\C/C=C\CCCCC)C(=O)OCCN(C)C` [Comparative Example 3, reference compound], the “Particle size (nm)” value in series [1] is reported as 72.4 nm. Besides, the “Nucleic acid encapsulation rate” value in series [2] amounted to 80%. In addition, in series [3], the pIC50 was < 7.00.

Consider `CCCCCCCC/C=C\CCCCCCCC(=O)OCCCCCCC(CCCCCCOC(=O)CCCCCCC/C=C\CCCCCCCC)OC(=O)OCCN(CC)CCN(C)C` [Example 36, 7-(((2-((2-(dimethylamino)ethyl)(ethyl)amino)ethoxy)carbonyl)oxy)tridecane-1,13-diyldioleate], for which the pIC50 in series [3] was 7.96.

`CCCCCC(CCCCC)C(=O)OCCCCCCC(CCCCCCOC(=O)C(CCCCC)CCCCC)OC(=O)OCCN(CC)CCN(CC)CC` [Example 60, 7-(((2-((2-(Diethylamino)ethyl)(ethyl)amino)ethoxy)carbonyl)oxy)tridecane-1,13-diylbis(2-pentylheptanoate)]: the pIC50 in series [3] (Luc2-siRNA lipid particles using the compound, siRNA 0.1 to 100 nmol/L, concentration at which Luc expression is knocked down to 50%, read-out: IC50) was 9.00.

Consider `CCCCCCC(CCCC)COC(=O)CCCC(CCCCCC)OC(=O)OCCN(CC)CCN(CC)CC` (stereo not shown) [Example 80, 2-butyloctyl 3,6-diethyl-12-hexyl-10-oxo-9,11-dioxa-3,6-diazahexadecan-16-oate], for which the “Particle size (nm)” value in series [1] was found to be 98.7 nm. Also, the “Nucleic acid encapsulation rate” value in series [2] is given as 61%.

Turning to `CCCCCCC(CCCC)COC(=O)CCCC(CCCCCC)OC(=O)OCCN(CCN(CC)CC)C(C)C` (stereo not shown) [Example 81, 2-Butyloctyl 3-ethyl-12-hexyl-6-isopropyl-10-oxo-9,11-dioxa-3,6-diazahexadecan-16-oate], the “Particle size (nm)” value in series [1] is listed as 102.6 nm. Besides, the “Nucleic acid encapsulation rate” value in series [2] was found to be 49%.

In the case of `CCCCCCCCC(CCCCCC)COC(=O)CCCC(CCCCCC)OC(=O)OCCN(CC)CCN(CC)CC` (stereo not shown) [Example 82, 2-Hexyldecyl 3,6-diethyl-12-hexyl-10-oxo-9,11-dioxa-3,6-diazahexadecan-16-oate], the “Particle size (nm)” value in series [1] turned out to be 77 nm. Further, the “Nucleic acid encapsulation rate” value in series [2] is on record as 78%.

With `CCCCCCC(CCCC)COC(=O)CCCCCCCCC(CCCCCC)OC(=O)OCCN(CCO)CCN(CC)CC` (stereo not shown) [Example 85, 2-Butyloctyl 3-ethyl-12-hexyl-6-(2-hydroxyethyl)-10-oxo-9,11-dioxa-3,6-diazahenicosan-21-oate], the “Particle size (nm)” value in series [1] is reported as 246.6 nm. For the same compound, the “Nucleic acid encapsulation rate” value in series [2] came out at 86%.

Turning to `CCCCCCC(CCCC)COC(=O)CCCCCCCCC(CCCCCC)OC(=O)OCCN(CCO)CCCN(CC)CC` (stereo not shown) [Example 90, 2-Butyloctyl 3-ethyl-13-hexyl-7-(2-hydroxyethyl)-11-oxo-10,12-dioxa-3,7-diazadocosan-22-oate], the “Particle size (nm)” value in series [1] amounted to 169.3 nm. Also, the “Nucleic acid encapsulation rate” value in series [2] stood at 60%.

`CCCCCCC(CCCC)COC(=O)CCCCCCC(CCCCCC)OC(=O)OCCN(CCN(CC)CC)C(C)C` (stereo not shown) [Example 92, 2-Butyloctyl 3-ethyl-12-hexyl-6-isopropyl-10-oxo-9,11-dioxa-3,6-diazanonadecan-19-oate]: the “Particle size (nm)” value in series [1] is given as 90.5 nm. Also, the “Nucleic acid encapsulation rate” value in series [2] stood at 73%.

On to `CCCCCCC(CCCC)COC(=O)CCCCC(CCCCCC)OC(=O)OCCN(CCN(CC)CC)C(C)C` (stereo not shown) [Example 95, 2-Butyloctyl 3-ethyl-12-hexyl-6-isopropyl-10-oxo-9,11-dioxa-3,6-diazaheptadecan-17-oate], for which the “Particle size (nm)” value in series [1] was determined as 95.5 nm. In addition, in series [2], the “Nucleic acid encapsulation rate” value was 83%.

Turning to `CCCCCCCCC(CCCCCC)COC(=O)CCCCC(CCCCCC)OC(=O)OCCN(CCN(CC)CC)C(C)C` (stereo not shown) [Example 96, 2-Hexyldecyl 3-ethyl-12-hexyl-6-isopropyl-10-oxo-9,11-dioxa-3,6-diazaheptadecan-17-oate], the “Particle size (nm)” value in series [1] stood at 72.9 nm. The “Nucleic acid encapsulation rate” value in series [2] turned out to be 88%.

For the compound `CCCCCCCCC(CCCCCC)COC(=O)CCCCCCCCC(CCCCCC)OC(=O)OCCN(CCO)CCN(CC)CC` (stereo not shown) [Example 97, 2-Hexyldecyl 3-ethyl-12-hexyl-6-(2-hydroxyethyl)-10-oxo-9,11-dioxa-3,6-diazahenicosan-21-oate], in series [1], the “Particle size (nm)” value turned out to be 142 nm. The “Nucleic acid encapsulation rate” value in series [2] is given as 82%.

For the compound `CCCCCCCCC(CCCCCC)COC(=O)CCC(CCCCCC)OC(=O)OCCN(CCN(CC)CC)C(C)C` (stereo not shown) [Example 114, 2-Hexyldecyl 3-ethyl-12-hexyl-6-isopropyl-10-oxo-9,11-dioxa-3,6-diazapentadecan-15-oate], the “Particle size (nm)” value in series [1] was found to be 80.1 nm. In series [2], the “Nucleic acid encapsulation rate” value was found to be 69%.

`CCCCCCCC/C=C\CCCCCCCCOC(=O)CCCC(CCCCCC)OC(=O)OCCN(CCN(CC)CC)C(C)C` (stereo not shown) [Example 115, (Z)-octadec-9-en-1-yl 3-ethyl-12-hexyl-6-isopropyl-10-oxo-9,11-dioxa-3,6-diazahexadecan-16-oate]: the “Particle size (nm)” value in series [1] worked out at 88.6 nm. Also, the “Nucleic acid encapsulation rate” value in series [2] amounted to 69%.

`CCCCCCC(CCCCCCCCC(=O)OCCC(CCCCC)CCCCC)OC(=O)OCCN(CCO)CCN(CC)CC` (stereo not shown) [Example 123, 3-Pentyloctyl 3-ethyl-12-hexyl-6-(2-hydroxyethyl)-10-oxo-9,11-dioxa-3,6-diazahenicosan-21-oate]: the “Particle size (nm)” value in series [1] stood at 257 nm. Further, the “Nucleic acid encapsulation rate” value in series [2] came to 66%.

With `CCCCCCCCC(CCCCCC)COC(=O)CCCCCCCCC(CCCCC)OC(=O)OCCN(CCN(CC)CC)C(C)C` (stereo not shown) [Example 127, 2-Hexyldecyl 3-ethyl-6-isopropyl-10-oxo-12-pentyl-9,11-dioxa-3,6-diazahenicosan-21-oate], the “Particle size (nm)” value in series [1] amounted to 80.7 nm. Further, the “Nucleic acid encapsulation rate” value in series [2] was determined as 71%.

For `CCCCCCC(CCCCCCCCC(=O)OCC(CCCCC)CCCCC)OC(=O)OCCN(CCO)CCN(CC)CC` (stereo not shown) [Example 128, 2-Pentylheptyl 3-ethyl-12-hexyl-6-(2-hydroxyethyl)-10-oxo-9,11-dioxa-3,6-diazahenicosan-21-oate], the “Particle size (nm)” value in series [1] was found to be 255 nm. Further, the “Nucleic acid encapsulation rate” value in series [2] is 62%.

Consider `CCCCCCCCC(CCCCCC)COC(=O)CCCCCCCCC(CCCCC)OC(=O)OCCN(CCO)CCN(CC)CC` (stereo not shown) [Example 131, 2-Hexyldecyl 3-ethyl-6-(2-hydroxyethyl)-10-oxo-12-pentyl-9,11-dioxa-3,6-diazahenicosan-21-oate], for which the “Particle size (nm)” value in series [1] came to 291 nm. Also, the “Nucleic acid encapsulation rate” value in series [2] came to 41%.

For `CCCCCCCCC(CCCCCC)COC(=O)CCCCCCCCC(CCCCC)OC(=O)OCCN(CCOC(=O)CCCCCCC)CCN(CC)CC` (stereo not shown) [Example 132, 2-Hexyldecyl 3-ethyl-6-(2-(octanoyloxy)ethyl)-10-oxo-12-pentyl-9,11-dioxa-3,6-diazahenicosan-21-oate], the “Particle size (nm)” value in series [1] was found to be 98.4 nm. The “Nucleic acid encapsulation rate” value in series [2] turned out to be 76%.
